Assay results: patent publication US6365633B1, “Method of treating eating disorders” (Knoll Pharmaceutical Company, priority 1999, dated 2002)

Experiments:
[1] = biological target: [3H]Dopamine reuptake in rat brain tissue; assay: in vitro [3H]dopamine reuptake inhibition in rat brain tissue; format: biochemical; details: means of ≧3 separate determinations
[2] = biological target: [3H]Noradenaline reuptake in rat brain tissue; assay: in vitro [3H]noradrenaline reuptake inhibition in rat brain tissue; format: biochemical; details: means of ≧3 separate determinations

| SMILES | Ki [1] [nM] | Ki [2] [nM] |
| --- | --- | --- |
| CC(NC(C)(C)C)C(=O)c1cccc(Cl)c1 (stereo not shown) [Bupropion] | 409 | 2590 |
| COc1ccc(C(CN(C)C)C2(O)CCCCC2)cc1 (stereo not shown) [Venlafaxine] | 2590 | 196 |
